From paper PMC11249646, “Small-Molecule Disruptors of the Interaction between Calcium- and Integrin-Binding Protein 1 and Integrin αIIbβ3 as Novel Antiplatelet Agents” (ACS Pharmacology & Translational Science, 2024)
Like-named read-outs stand apart in the source and are kept apart here.

Tests used:
[1] = biological target: T1, CIB1 and αIIb interaction (CIB1-GST : F-αIIb peptide) (Homo sapiens, UniProt Q99828); experiment: FP assay, 1536-well qHTS format (primary and confirmatory screen); assay type: binding; details: for CONFIRMATORY SCREEN Curve Class / Curve Class (confirmatory screen): qHTS curve class
T1 construct: made in house; host or cells: BL-21 plus RIL cells (E. coli)
T1 sequence (Q99828 1-191): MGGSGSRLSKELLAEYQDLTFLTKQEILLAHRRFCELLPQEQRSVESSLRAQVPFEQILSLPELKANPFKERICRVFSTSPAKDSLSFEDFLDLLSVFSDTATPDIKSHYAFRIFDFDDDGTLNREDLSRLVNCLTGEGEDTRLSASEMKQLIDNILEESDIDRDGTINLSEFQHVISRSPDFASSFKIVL

[2] = biological target: T2, GST-CIB1 : F-scrambled peptide (Homo sapiens, UniProt Q99828); experiment: FP scrambled-peptide counter screen, 1536-well format; assay type: binding; details: for COUNTERSCREEN Curve Class / Curve Class (counterscreen): qHTS curve class; for IC50: read-out: IC50 [μM] (counterscreen)
T2 construct: made in house; host or cells: BL-21 plus RIL cells (E. coli)
T2 sequence (Q99828 1-191): T1 sequence (Q99828 1-191)

[3] = qHTS primary screen hits, Table S2, negative = inhibition
[4] = qHTS primary screen hits, Table S2, negative sign = inhibitory curve, several classes where COUNT > 1
[5] = qHTS primary screen hits, Table S2, read-out: IC50
[6] = confirmatory screen, negative sign = inhibitory curve
[7] = confirmatory screen, read-out: IC50 [μM] (confirmatory screen)
[8] = qHTS FP screen hits, Table S2, negative = inhibition
[9] = qHTS FP screen hits, Table S2, read-out: IC50
[10] = counterscreen, negative sign = inhibitory curve
[11] = Table S3, confirmatory screen, a negative sign marks inhibitory curves
[12] = Table S3, confirmatory screen, negative = inhibition
[13] = qHTS FP screen hits, Table S2, one class per curve where COUNT > 1, negative sign = inhibitory curve
[14] = Table S3, counterscreen, a negative sign marks inhibitory curves
[15] = Table S3, counterscreen, negative = inhibition
[16] = qHTS primary screen hits, Table S2, negative sign = inhibitory curve
[17] = Table S3, confirmatory screen, YES/NO call
[18] = Table S3, confirmatory screen, read-out: IC50 [μM] (confirmatory screen)
[19] = Table S3, counterscreen, YES/NO call

SMILES	Efficacy (%) [1, 3] [%]	Curve Class [1, 4]	IC50 [1, 5] [µM]	Curve Class (confirmatory screen) [1, 11]	Efficacy (%) (confirmatory screen) [1, 12]	Curve Class (counterscreen) [2, 14]	Efficacy (%) (counterscreen) [2, 15]	IC50 ([2]; Table S3, counterscreen) [µM]	further results
CN1CCC(N(Cc2cccs2)c2ccccc2)CC1 [NCGC00183847-01]	-43	-2.4	39.8						CONFIRMATORY SCREEN Efficacy (%) ([1]; confirmatory screen): 0%; CONFIRMATORY SCREEN Curve Class ([1]; confirmatory screen): 4; COUNTERSCREEN Efficacy (%) ([2]; counterscreen): -12%; COUNTERSCREEN Curve Class ([2]; counterscreen): 4
COc1cc([C@H]2Oc3cc([C@H]4Oc5cc(O)cc(O)c5C(=O)[C@@H]4O)ccc3O[C@@H]2CO)ccc1O [NCGC00091057-05]									CONFIRMATORY SCREEN Efficacy (%) ([1]; confirmatory screen): -30%; CONFIRMATORY SCREEN Curve Class ([1]; confirmatory screen): 4; COUNTERSCREEN Efficacy (%) ([2]; counterscreen): 0%; COUNTERSCREEN Curve Class ([2]; counterscreen): 4
CN1C[C@H](CNC(=O)OCc2ccccc2)C[C@@H]2c3cccc4c3c(cn4C)C[C@H]21 [NCGC00017257-10]									Efficacy (%) (confirmatory screen) ([1]; confirmatory screen): -126%; Confirm? (confirmatory screen) ([1]; confirmatory screen, YES/NO): YES; Curve Class (confirmatory screen) [1, 6]: -2.1; IC50 [1, 7]: 44.7 µM; Efficacy (%) [1, 8]: -75%; IC50 [1, 9]: 36.4 µM; Efficacy (%) (counterscreen) ([2]; counterscreen): -32%; Confirm? (counterscreen) ([2]; counterscreen, YES/NO): YES; Curve Class (counterscreen) [2, 10]: -2.4; IC50 ([2]; counterscreen): 63.1 µM
CC(=O)c1c(O)cc2c(c1C)C(=O)CC(O)C2 (stereo not drawn) [NCGC00380695-01]				4	-25	-3	0		Efficacy (%) [1, 8]: -53%; Curve Class [1, 13]: -2.2; IC50 [1, 9]: 56.2 µM
CC1CCC2(C1)N=C(Nc1nc3ccccc3o1)NC1=C2C(=O)CCC1.O=C(O)C(F)(F)F (stereo not drawn) [NCGC00188039-01]	-25		31.6						CONFIRMATORY SCREEN Efficacy (%) ([1]; confirmatory screen): -33%; CONFIRMATORY SCREEN Curve Class ([1]; confirmatory screen): 4; Curve Class [1, 16]: -2.4; COUNTERSCREEN Efficacy (%) ([2]; counterscreen): -20%; COUNTERSCREEN Curve Class ([2]; counterscreen): 4
O=C(c1ccccc1)c1c(O)cc(O)cc1O[C@@H]1O[C@H](CO)[C@@H](O)[C@H](O)[C@H]1O [NCGC00384934-01]									CONFIRMATORY SCREEN Efficacy (%) ([1]; confirmatory screen): -21%; CONFIRMATORY SCREEN Curve Class ([1]; confirmatory screen): 4; Efficacy (%) [1, 8]: -29%; Curve Class [1, 13]: -1.2; IC50 [1, 9]: 25.1 µM; COUNTERSCREEN Efficacy (%) ([2]; counterscreen): -31%; COUNTERSCREEN Curve Class ([2]; counterscreen): 4
O=C(Nc1ccc(S(=O)(=O)N2CCOCC2)cc1)c1cc(Cl)ccc1NS(=O)(=O)c1ccc(Cl)s1.O=C(O)C(F)(F)F [NCGC00249417-01]				4	-31		163	79.4	
O=C(O)C(F)(F)F.Oc1cccc2cc(C3CC3)cnc12 [NCGC00188747-01]				4	-17	4	-25		Efficacy (%) [1, 8]: -36%; Curve Class [1, 13]: -1.2; IC50 [1, 9]: 31.6 µM
CN(C)c1cnc2c(O)cccc2c1.O=C(O)C(F)(F)F [NCGC00188745-01]	-53	-2.2	44.7						CONFIRMATORY SCREEN Efficacy (%) ([1]; confirmatory screen): -19%; CONFIRMATORY SCREEN Curve Class ([1]; confirmatory screen): 4; COUNTERSCREEN Efficacy (%) ([2]; counterscreen): -32%; COUNTERSCREEN Curve Class ([2]; counterscreen): 4
O=C(O)C(F)(F)F.O=C1Nc2ccccc2/C1=N/NC(=S)Nc1ccc(Oc2ccccc2)cc1 [NCGC00229524-01]	-25		2.8	-1.4	-29	-1.4	-38	4	Confirm? (confirmatory screen) [1, 17]: YES; IC50 [1, 18]: 12.6 µM; Curve Class [1, 16]: -1.4
COc1ccc2[nH]c([S+]([O-])Cc3ncc(C)c(OC)c3C)nc2c1 (stereo not drawn) [NCGC00016925-10]	-35	-2.2	10.8	-1.2	-58	-2.2	-57	35.5	Confirm? (confirmatory screen) [1, 17]: YES; IC50 [1, 18]: 28.2 µM
O=C(O)C(F)(F)F.O=C1CCCC2=C1C(c1ccn[nH]1)N=C(Nc1nc3ccccc3o1)N2 (stereo not drawn) [NCGC00229725-01]	-32		25.1	4	-29	4	-32		Curve Class [1, 16]: -2.2
O=C(O)C(F)(F)F.O=C1CCCC2=C1C(c1n[nH]cc1Cl)NC(Nc1nc3ccccc3o1)=N2 (stereo not drawn) [NCGC00238624-04]				-1.2	-34	-1.2	-54	35.5	Confirm? (confirmatory screen) [1, 17]: YES; IC50 [1, 18]: 25.1 µM
O=c1cc(-c2ccccc2)oc2cc(O)c(O)c(O)c12 [NCGC00017236-08]	-30		34.1						Efficacy (%) (confirmatory screen) ([1]; confirmatory screen): -112%; IC50 [1, 7]: 39.8 µM; Efficacy (%) (counterscreen) ([2]; counterscreen): -64%; IC50 ([2]; counterscreen): 39.8 µM
CC(C)c1ccc(NC(=S)N/N=C2\C(=O)Nc3ccccc32)cc1.O=C(O)C(F)(F)F [NCGC00242646-01]	-16	-1.4	10	4	-28	-1.2	-36	12.6	Confirm? (counterscreen) [2, 19]: YES
COc1ccc(S(=O)(=O)Nc2cnccc2C(=O)Nc2nc(-c3ccccc3)cs2)cc1.O=C(O)C(F)(F)F [NCGC00344944-01]									Efficacy (%) (confirmatory screen) ([1]; confirmatory screen): -81%; Confirm? (confirmatory screen) ([1]; confirmatory screen, YES/NO): YES; Curve Class (confirmatory screen) [1, 6]: -2.2; Efficacy (%) [1, 8]: -52%; Curve Class [1, 13]: -2.2; IC50 [1, 9]: 39.8 µM; Efficacy (%) (counterscreen) ([2]; counterscreen): -81%; Curve Class (counterscreen) [2, 10]: -2.2; IC50 ([2]; counterscreen): 44.7 µM
C[n+]1cc2c3c(ccc2c2ccc4cc5c(cc4c21)OCO5)OCO3.[Cl-] [NCGC00015959-09]	-124		14.1	4	0	4	0		Curve Class [1, 16]: -1.1
C=C1C(=O)[C@@]23C(CC[C@@H]1[C@H]2O)[C@@]12CO[C@]3(O)[C@@H](O)[C@@H]1C(C)(C)CC[C@@H]2O (stereo partly drawn) [NCGC00346595-02]									Efficacy (%) (confirmatory screen) ([1]; confirmatory screen): -89%; Confirm? (confirmatory screen) ([1]; confirmatory screen, YES/NO): YES; Curve Class (confirmatory screen) [1, 6]: -1.1; IC50 [1, 7]: 25.1 µM; Efficacy (%) (counterscreen) ([2]; counterscreen): -60%; Curve Class (counterscreen) [2, 10]: -1.2; IC50 ([2]; counterscreen): 15.8 µM
O=C(O)C(F)(F)F.O=C1CCCC2=C1C(c1ccncc1)N=C(Nc1nc3ccccc3o1)N2 (stereo not drawn) [NCGC00188839-01]	-44	-2.2	28.2	4	-25	4	-13		
O=C(O)C(F)(F)F.O=C1CCCC2=C1C(c1ncccc1C(F)(F)F)N=C(Nc1nc3ccccc3o1)N2 (stereo not drawn) [NCGC00189070-01]	-47	-2.2	39.8	4	-19	-2.4	-41	28.2	Confirm? (counterscreen) [2, 19]: YES
O=C(O)C(F)(F)F.O=S(=O)(Nc1nccs1)c1ccc(Nc2nc(-c3ccccc3)cs2)cc1 [NCGC00262380-01]	-69	-2.2	50.1	-2.2	-80	-2.1	-81	50.1	Confirm? (confirmatory screen) [1, 17]: YES
Cc1cc(C(C#N)c2ccc(Cl)cc2)c(Cl)cc1NC(=O)c1cc(I)cc(I)c1O (stereo not drawn) [NCGC00166312-02]				4	-32		117	31.6	IC50 ([1]; IC50 [μM], qHTS FP screen hits, Table S2): 27 µM; Efficacy (%) [1, 8]: -35%
O=C(O)Cc1ccc(CCNS(=O)(=O)c2ccc(Cl)cc2)cc1 [NCGC00165787-03]									CONFIRMATORY SCREEN Efficacy (%) ([1]; confirmatory screen): 14%; CONFIRMATORY SCREEN Curve Class ([1]; confirmatory screen): 4; Efficacy (%) [1, 8]: -61%; Curve Class [1, 13]: -2.2; IC50 [1, 9]: 79.4 µM; COUNTERSCREEN Efficacy (%) ([2]; counterscreen): 0%; COUNTERSCREEN Curve Class ([2]; counterscreen): 4
O=C1NC(c2ccc(N3CCOCC3)cc2)(c2ccsc2)CC(O)=C1Sc1ccccc1Cl (stereo not drawn) [NCGC00388532-05]	-27	-1.4	0.9						Efficacy (%) (confirmatory screen) ([1]; confirmatory screen): -53%; Confirm? (confirmatory screen) ([1]; confirmatory screen, YES/NO): YES; Curve Class (confirmatory screen) [1, 6]: -2.4; IC50 [1, 7]: 44.7 µM; Efficacy (%) (counterscreen) ([2]; counterscreen): -48%; Curve Class (counterscreen) [2, 10]: -2.2; IC50 ([2]; counterscreen): 31.6 µM
